Source: publication PMC8126209, “Phytochemical Profile and In Vitro Antioxidant, Antimicrobial, Vital Physiological Enzymes Inhibitory and Cytotoxic Effects of Artemisia jordanica Leaves Essential Oil from Palestine” (Molecules, 2021)
In brackets after ≈: the same amount, converted by molar mass. Where two headings read alike, the source gives them in different places. Marks after values point to notes of the source that are not given here. One block for each molecule: values may come before it.

What was measured:
HeLa = assay: MTS cytotoxicity assay, HeLa; type: cell-based; details: Homo sapiens, 24 h, read-out: IC50 against HeLa
Protocol: (§1) The liver (Hep3B), breast (MCF-7), Human cervical (HeLa), and Colon (CACO-2) tumor cell lines were cultivated separately in RPMI-1640 media (Sigma, Norwich, UK), which was treated with 1% L-glutamine (Sigma, London, UK), 1% penicillin/streptomycin antibiotics (BI, New Delhi, India), and 10% fetal bovine serum. Cancer cells were grown at 37 °C in a humidified atmosphere with 5% CO2. Cells were seeded at 2.6 × 10^4 cells/well in a 96-well plate. […] Cell viability was evaluated by the CellTilter 96® Aqueous One Solution Cell Proliferation (MTS) Assay according to the manufacturer’s directions (Promega Corporation, Madison, WI, USA). At the end of the treatment, 20 μL of MTS solution per 100 μL of media was added to each well, and the solutions in the well plates were incubated at 37 °C for 2 h. The absorbance was measured at 490 nm.

Caco-2 = assay: MTS cytotoxicity assay, Caco-2; type: cell-based; details: Homo sapiens, 24 h, read-out: IC50 against Caco-2
Protocol: as §1

HepG2 = assay: MTS cytotoxicity assay, HepG2; type: cell-based; details: Homo sapiens, 24 h, text names Hep3B, read-out: IC50 against HepG2
K. pneumoniae = assay: Broth microdilution MIC, K. pneumoniae; type: cell-based, Klebsiella pneumonia (ATCC 13883); details: Klebsiella pneumoniae
Protocol: (§2) The antimicrobial activity of the (AJ) EO used in this study was estimated using the broth microdilution method. The (AJ) EO was dissolved in DMSO to a concentration of 200 µg/mL. The produced solution was serially micro-diluted (2-fold) 10 times in sterile Mueller–Hinton broth (Thermo Fisher Scientific, Waltham, MA, USA). The dilution processes were performed under aseptic conditions in 96-well plates. In the micro-wells that were assigned to evaluate the antibacterial activity of (AJ) EO, micro-well number 11 contained plant-free Mueller–Hinton broth, which was used as a positive control for microbial growth. Micro-well number 12 contained plant-free and microbial-free Mueller–Hinton broth, which was used as a negative control for microbial growth. Micro-wells numbered 1–11 were inoculated aseptically with the test microbes. The (AJ) EO antimicrobial activity was determined in triplicate. All the inoculated plates were incubated at 35 °C. Regarding C. albicans, the same method was used but using RPMI media (Thermo Fisher Scientific, Waltham, MA, USA) instead of Mueller–Hinton broth. The incubation period lasted for about 18–24 h for those plates inoculated with the test bacterial strains and for about 48 h for those plates inoculated with C. albicans.

P. aeruginosa = assay: Broth microdilution MIC, P. aeruginosa; type: cell-based, Pseudomonas aeruginosa (ATCC 9027); set-up: key: R: Resistant
Protocol: The antibacterial effect of (AJ) EO was determined utilizing several strains of bacteria, which were obtained from the American Type Culture Collection (ATCC): Pseudomonas aeruginosa (ATCC 9027), Escherichia coli (ATCC 25922), Klebsiella pneumonia (ATCC 13883), Proteus vulgaris (ATCC 8427), and Staphylococcus aureus (ATCC 25923), and from a diagnostically confirmed methicillin-resistant Staphylococcus aureus (MRSA). The antifungal activity of (AJ) EO was evaluated against the growth of Candida albicans (ATCC 90028). The antimicrobial activity of the (AJ) EO used in this study was estimated using the broth microdilution method. The (AJ) EO was dissolved in DMSO to a concentration of 200 µg/mL. The produced solution was serially micro-diluted (2-fold) 10 times in sterile Mueller–Hinton broth (Thermo Fisher Scientific, Waltham, MA, USA). The dilution processes were performed under aseptic conditions in 96-well plates. In the micro-wells that were assigned to evaluate the antibacterial activity of (AJ) EO, micro-well number 11 contained plant-free Mueller–Hinton broth, which was used as a positive control for microbial growth. Micro-well number 12 contained plant-free and microbial-free Mueller–Hinton broth, which was used as a negative control for microbial growth. […] The (AJ) EO antimicrobial activity was determined in triplicate. […]

MRSA = assay: Broth microdilution MIC, MRSA; type: cell-based, methicillin-resistant Staphylococcus aureus; set-up: key: R: Resistant
Protocol: as §2

P. vulgaris = assay: Broth microdilution MIC, P. vulgaris; type: cell-based, Proteus vulgaris (ATCC 8427)
Protocol: The antibacterial effect of (AJ) EO was determined utilizing several strains of bacteria, which were obtained from the American Type Culture Collection (ATCC): Pseudomonas aeruginosa (ATCC 9027), Escherichia coli (ATCC 25922), Klebsiella pneumonia (ATCC 13883), Proteus vulgaris (ATCC 8427), and Staphylococcus aureus (ATCC 25923), and from a diagnostically confirmed methicillin-resistant Staphylococcus aureus (MRSA). The antifungal activity of (AJ) EO was evaluated against the growth of Candida albicans (ATCC 90028). The antimicrobial activity of the (AJ) EO used in this study was estimated using the broth microdilution method. The (AJ) EO was dissolved in DMSO to a concentration of 200 µg/mL. The produced solution was serially micro-diluted (2-fold) 10 times in sterile Mueller–Hinton broth (Thermo Fisher Scientific, Waltham, MA, USA). The dilution processes were performed under aseptic conditions in 96-well plates. In the micro-wells that were assigned to evaluate the antibacterial activity of (AJ) EO, micro-well number 11 contained plant-free Mueller–Hinton broth, which was used as a positive control for microbial growth. Micro-well number 12 contained plant-free and microbial-free Mueller–Hinton broth, which was used as a negative control for microbial growth. Micro-wells numbered 1–11 were inoculated aseptically with the test microbes. The (AJ) EO antimicrobial activity was determined in triplicate. All the inoculated plates were incubated at 35 °C. Regarding C. albicans, the same method was used but using RPMI media (Thermo Fisher Scientific, Waltham, MA, USA) instead of Mueller–Hinton broth. The incubation period lasted for about 18–24 h for those plates inoculated with the test bacterial strains and for about 48 h for those plates inoculated with C. albicans. […]

[1] = DPPH free radical scavenging assay; details: 30 min, 517 nm
Protocol: One hundred mg of (AJ) EO was dissolved in 100 mL of methanol to create the stock solution (1 mg/mL). The obtained solution was mixed with methanol to obtain different concentrations (2, 3, 5, 7, 10, 20, 30, 40, 50, 80, and 100 μg/mL). One milliliter of stock solution and 1 mL of methanol were mixed with 1 mL of DPPH (Sigma-Aldrich, Steinheim, Germany). Then, the solution was kept in the dark at room temperature for 30 min. However, by replacing the plant EO solution with methanol, the blank solution was prepared. Trolox (Sigma-Aldrich, St. Louis, MO, USA) was utilized as a positive control, and the absorbance for all obtained samples was measured by spectrophotometer (Shimadzu-UV-1800, Kyoto, Japan) at 517 nm. The DPPH inhibitory potentials were estimated utilizing the following formula:I (%) = [ABSblank − ABStest]/[ABSblank]) × 100%(2) where I (%) is the percentage of DPPH inhibitory potentials.

human recombinant COX-2 = molecular target: T1, human recombinant COX-2 (Homo sapiens, UniProt P35354); assay: COX inhibitor screening assay kit, COX-2; type: biochemical; details: calculated from two concentrations (350 and 50 µg/mL); read-out: IC50 COX-2
T1 construct: purchased Cayman Chemical 560131
T1 sequence (P35354 18-604): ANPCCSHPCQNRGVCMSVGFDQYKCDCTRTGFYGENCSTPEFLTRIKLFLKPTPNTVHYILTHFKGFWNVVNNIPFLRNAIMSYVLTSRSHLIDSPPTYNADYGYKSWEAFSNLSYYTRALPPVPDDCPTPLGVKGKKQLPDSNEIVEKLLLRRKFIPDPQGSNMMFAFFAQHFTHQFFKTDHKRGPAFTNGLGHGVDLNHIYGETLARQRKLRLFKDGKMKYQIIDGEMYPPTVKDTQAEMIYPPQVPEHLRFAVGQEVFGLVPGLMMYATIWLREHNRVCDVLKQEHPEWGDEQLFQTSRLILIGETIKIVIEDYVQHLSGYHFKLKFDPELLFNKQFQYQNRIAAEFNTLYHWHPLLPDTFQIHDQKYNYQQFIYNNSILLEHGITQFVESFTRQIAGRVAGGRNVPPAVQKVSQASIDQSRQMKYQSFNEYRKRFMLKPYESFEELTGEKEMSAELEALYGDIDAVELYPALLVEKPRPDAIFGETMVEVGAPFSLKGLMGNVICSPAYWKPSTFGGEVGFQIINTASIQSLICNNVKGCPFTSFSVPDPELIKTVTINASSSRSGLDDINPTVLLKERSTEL
From the text: The percentage inhibition of the two concentrations was used to calculate the IC50 [69, 70].

bovine COX-1 = molecular target: T2, bovine COX-1 (Ovis aries, UniProt P05979); assay: COX inhibitor screening assay kit, COX-1; type: biochemical; details: calculated from two concentrations (350 and 50 µg/mL); read-out: IC50 COX-1
T2 construct: purchased Cayman Chemical 560131
T2 sequence (P05979 25-600): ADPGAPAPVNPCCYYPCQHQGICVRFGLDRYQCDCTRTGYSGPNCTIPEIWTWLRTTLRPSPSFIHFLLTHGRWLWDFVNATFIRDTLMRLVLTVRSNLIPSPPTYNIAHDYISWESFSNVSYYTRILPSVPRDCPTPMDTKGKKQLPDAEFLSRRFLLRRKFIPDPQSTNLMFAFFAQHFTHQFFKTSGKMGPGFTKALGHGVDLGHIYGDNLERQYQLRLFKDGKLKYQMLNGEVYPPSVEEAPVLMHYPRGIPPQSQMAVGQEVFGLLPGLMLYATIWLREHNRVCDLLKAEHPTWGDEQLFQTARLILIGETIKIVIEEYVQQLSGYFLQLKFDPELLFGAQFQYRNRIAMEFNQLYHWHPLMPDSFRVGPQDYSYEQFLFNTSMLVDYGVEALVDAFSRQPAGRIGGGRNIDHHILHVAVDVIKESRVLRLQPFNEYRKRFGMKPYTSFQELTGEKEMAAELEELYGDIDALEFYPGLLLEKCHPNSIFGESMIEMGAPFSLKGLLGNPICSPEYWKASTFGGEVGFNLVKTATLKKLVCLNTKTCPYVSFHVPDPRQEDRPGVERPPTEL
Protocol: The ability of the (AJ) EO to prevent the conversion of arachidonic acid to PGH2 by bovine COX-1 and human recombinant COX-2 was assessed using a COX inhibitor screening assay kit (Item No: 560131, Cayman Chemical, Ann Arbor, MI, USA) according to manufacturer’s guidelines. The 50% inhibitory concentration (IC50) of COX-1/COX-2 activity of the tested samples was determined, with the assay run, in duplicate, with two concentrations (350 and 50 µg/mL). A standard curve of eight concentrations of prostaglandin, a non-specific binding sample, and a maximum binding sample was used, as instructed in the kit manual, to determine the inhibition of the sample plant, applying the generated multiple regression best-fit line. The percentage inhibition of the two concentrations was used to calculate the IC50 [69, 70].

[2] = Proteus vulgaris, read-out: MIC

Compound: COc1cccc2c1C(=O)c1c(O)c3c(c(O)c1C2=O)C[C@@](O)(C(=O)CO)C[C@@H]3O[C@H]1C[C@H](N)[C@H](O)[C@H](C)O1 [doxorubicin]
IC50 (HeLa): 0.84 ± 0.03 µg/mL (≈ 1.55 µM)
IC50 (Caco-2): 0.37 ± 0.08 µg/mL (≈ 0.681 µM)
IC50 (HepG2): 1.21 ± 0.05 µg/mL (≈ 2.23 µM)

MIC (K. pneumoniae): 1 µg/mL (≈ 2.86 µM)
MIC (P. aeruginosa): R
MIC (MRSA): R
MIC (MRSA; listed as ampicillin): does not have antibacterial activity
MIC (P. vulgaris; [2]): 18 µg/mL (≈ 51.5 µM)
Compound: CC1(C)S[C@@H]2[C@H](NC(=O)[C@H](N)c3ccccc3)C(=O)N2[C@H]1C(=O)O [Ampicillin, ampicillin]

IC50 against DPPH [1]: 1.58 ± 1.49 ^a µg/mL
Compound: Cc1c(C)c2c(c(C)c1O)CCC(C)(C(=O)O)O2 (stereo not shown) [Trolox]

MIC (P. vulgaris): 15 µg/mL (≈ 45.3 µM)
MIC (P. vulgaris; [2]): 15 µg/mL (≈ 45.3 µM)
Compound: O=C(O)c1cn(C2CC2)c2cc(N3CCNCC3)c(F)cc2c1=O [Ciprofloxacin, ciprofloxacin]

potency estimated from few doses (human recombinant COX-2): 40.2 ± 1.09 µg/mL (≈ 158 µM)
potency estimated from few doses (bovine COX-1): 7.89 ± 0.96 µg/mL (≈ 31 µM)
Compound: CC(C(=O)O)c1cccc(C(=O)c2ccccc2)c1 (stereo not shown) [Ketoprofen]
